{
  "source": "PubChem BioAssay (NCI)",
  "assay_in_all_cases": "growth of human tumour cells (NCI), 384-well format",
  "key": {"NCI-H522 lung": {"tested_on": "NCI-H522 lung"}, "MOLT-4 leukemia": {"tested_on": "MOLT-4 leukemia"}, "LOX IMVI melanoma": {"tested_on": "LOX IMVI melanoma"}, "HL-60(TB) leukemia": {"tested_on": "HL-60(TB) leukemia"}, "K-562 leukemia": {"tested_on": "K-562 leukemia"}, "MDA-MB-468 breast": {"tested_on": "MDA-MB-468 breast"}, "OVCAR-5 ovarian": {"tested_on": "OVCAR-5 ovarian"}, "MDA-MB-435 melanoma": {"tested_on": "MDA-MB-435 melanoma"}, "HCT-15 colon": {"tested_on": "HCT-15 colon"}, "SNB-75 CNS": {"tested_on": "SNB-75 CNS"}, "RXF 393 renal": {"tested_on": "RXF 393 renal"}, "SNB-19 CNS": {"tested_on": "SNB-19 CNS"}, "A549 NSCLC": {"tested_on": "A549 NSCLC"}, "M14 melanoma": {"tested_on": "M14 melanoma"}, "UACC-62 melanoma": {"tested_on": "UACC-62 melanoma"}, "NCI-H322M lung": {"tested_on": "NCI-H322M lung"}, "SK-MEL-28 melanoma": {"tested_on": "SK-MEL-28 melanoma"}, "IGROV1 ovarian": {"tested_on": "IGROV1 ovarian"}, "ACHN renal": {"tested_on": "ACHN renal"}, "HCT-116 colon": {"tested_on": "HCT-116 colon"}, "SF-295 CNS": {"tested_on": "SF-295 CNS"}, "SK-MEL-2 melanoma": {"tested_on": "SK-MEL-2 melanoma"}, "T-47D breast": {"tested_on": "T-47D breast"}, "SN12C renal": {"tested_on": "SN12C renal"}, "MDA-MB-231 breast": {"tested_on": "MDA-MB-231 breast"}, "UACC-257 melanoma": {"tested_on": "UACC-257 melanoma"}, "BT-549 breast": {"tested_on": "BT-549 breast"}, "786-0 renal": {"tested_on": "786-0 renal"}, "SF-539 CNS": {"tested_on": "SF-539 CNS"}, "TK-10 renal": {"tested_on": "TK-10 renal"}},
  "note": "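At the GI50, growth is halved. TGI: total growth inhibition.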",
  "data": [
    {"smiles": "CCS(=O)(=O)N1CCN(c2ccc(Nc3ncc(C(N)=O)c(NC4CC4)n3)cc2)CC1", "values": [
      {"measurement": "TGI", "setting": "NCI-H522 lung", "value": 4.97, "unit": "µM"},
      {"measurement": "GI50", "setting": "MOLT-4 leukemia", "value": 381, "unit": "nM"},
      {"measurement": "TGI", "setting": "MOLT-4 leukemia", "value": 1540, "unit": "nM"},
      {"measurement": "GI50", "setting": "LOX IMVI melanoma", "value": 2010, "unit": "nM"},
      {"measurement": "TGI", "setting": "LOX IMVI melanoma", "value": 13.3, "unit": "µM"},
      {"measurement": "GI50", "setting": "HL-60(TB) leukemia", "value": 418, "unit": "nM"},
      {"measurement": "TGI", "setting": "HL-60(TB) leukemia", "value": 2040, "unit": "nM"},
      {"measurement": "GI50", "setting": "K-562 leukemia", "value": 2060, "unit": "nM"},
      {"measurement": "TGI", "setting": "K-562 leukemia", "value": 8.1, "unit": "µM"},
      {"measurement": "GI50", "setting": "MDA-MB-468 breast", "value": 2050, "unit": "nM"},
      {"measurement": "TGI", "setting": "MDA-MB-468 breast", "value": 3.75, "unit": "µM"},
      {"measurement": "GI50", "setting": "OVCAR-5 ovarian", "value": 4.25, "unit": "µM"},
      {"measurement": "TGI", "setting": "OVCAR-5 ovarian", "value": 18.7, "unit": "µM"},
      {"measurement": "GI50", "setting": "MDA-MB-435 melanoma", "value": 1630, "unit": "nM"},
      {"measurement": "TGI", "setting": "MDA-MB-435 melanoma", "value": 8.98, "unit": "µM"},
      {"measurement": "GI50", "setting": "HCT-15 colon", "value": 1580, "unit": "nM"},
      {"measurement": "TGI", "setting": "HCT-15 colon", "value": 3.27, "unit": "µM"},
      {"measurement": "GI50", "setting": "SNB-75 CNS", "value": 4.03, "unit": "µM"},
      {"measurement": "TGI", "setting": "SNB-75 CNS", "value": 8.56, "unit": "µM"},
      {"measurement": "GI50", "setting": "RXF 393 renal", "value": 1510, "unit": "nM"},
      {"measurement": "TGI", "setting": "RXF 393 renal", "value": 3.73, "unit": "µM"},
      {"measurement": "GI50", "setting": "SNB-19 CNS", "value": 8.88, "unit": "µM"},
      {"measurement": "TGI", "setting": "SNB-19 CNS", "value": "> 100", "unit": "µM"},
      {"measurement": "GI50", "setting": "A549 NSCLC", "value": 1830, "unit": "nM"},
      {"measurement": "TGI", "setting": "A549 NSCLC", "value": "> 100", "unit": "µM"},
      {"measurement": "GI50", "setting": "M14 melanoma", "value": 301, "unit": "nM"},
      {"measurement": "TGI", "setting": "M14 melanoma", "value": 3.42, "unit": "µM"},
      {"measurement": "GI50", "setting": "UACC-62 melanoma", "value": 9.42, "unit": "µM"},
      {"measurement": "TGI", "setting": "UACC-62 melanoma", "value": 23.9, "unit": "µM"},
      {"measurement": "GI50", "setting": "NCI-H322M lung", "value": 1590, "unit": "nM"},
      {"measurement": "TGI", "setting": "NCI-H322M lung", "value": 3.93, "unit": "µM"},
      {"measurement": "GI50", "setting": "SK-MEL-28 melanoma", "value": 2930, "unit": "nM"},
      {"measurement": "TGI", "setting": "SK-MEL-28 melanoma", "value": 50.7, "unit": "µM"},
      {"measurement": "GI50", "setting": "IGROV1 ovarian", "value": 2820, "unit": "nM"},
      {"measurement": "TGI", "setting": "IGROV1 ovarian", "value": 16.3, "unit": "µM"},
      {"measurement": "GI50", "setting": "ACHN renal", "value": 4.3, "unit": "µM"},
      {"measurement": "TGI", "setting": "ACHN renal", "value": "> 100", "unit": "µM"},
      {"measurement": "GI50", "setting": "HCT-116 colon", "value": 3.72, "unit": "µM"},
      {"measurement": "TGI", "setting": "HCT-116 colon", "value": 91.1, "unit": "µM"},
      {"measurement": "GI50", "setting": "SF-295 CNS", "value": 1260, "unit": "nM"},
      {"measurement": "TGI", "setting": "SF-295 CNS", "value": 3.43, "unit": "µM"},
      {"measurement": "GI50", "setting": "SK-MEL-2 melanoma", "value": 1870, "unit": "nM"},
      {"measurement": "TGI", "setting": "SK-MEL-2 melanoma", "value": 3.89, "unit": "µM"},
      {"measurement": "GI50", "setting": "T-47D breast", "value": 2230, "unit": "nM"},
      {"measurement": "TGI", "setting": "T-47D breast", "value": 4.43, "unit": "µM"},
      {"measurement": "GI50", "setting": "SN12C renal", "value": 1760, "unit": "nM"},
      {"measurement": "TGI", "setting": "SN12C renal", "value": 10.2, "unit": "µM"},
      {"measurement": "GI50", "setting": "MDA-MB-231 breast", "value": 2930, "unit": "nM"},
      {"measurement": "TGI", "setting": "MDA-MB-231 breast", "value": 33.6, "unit": "µM"},
      {"measurement": "GI50", "setting": "UACC-257 melanoma", "value": 10.2, "unit": "µM"},
      {"measurement": "TGI", "setting": "UACC-257 melanoma", "value": 63, "unit": "µM"},
      {"measurement": "GI50", "setting": "BT-549 breast", "value": 1100, "unit": "nM"},
      {"measurement": "TGI", "setting": "BT-549 breast", "value": 2510, "unit": "nM"},
      {"measurement": "GI50", "setting": "786-0 renal", "value": 1600, "unit": "nM"},
      {"measurement": "TGI", "setting": "786-0 renal", "value": 3.41, "unit": "µM"},
      {"measurement": "GI50", "setting": "SF-539 CNS", "value": 1180, "unit": "nM"},
      {"measurement": "TGI", "setting": "SF-539 CNS", "value": 2730, "unit": "nM"},
      {"measurement": "GI50", "setting": "TK-10 renal", "value": 2200, "unit": "nM"},
      {"measurement": "TGI", "setting": "TK-10 renal", "value": 5.5, "unit": "µM"}
    ]}
  ]
}
